US5789541A, “Compounds for inhibition of proteolysis” (President and Fellows of Harvard College, priority 1995, dated 1998)
Where two headings read alike, the source gives them in different places. Non-standard residues stand in square brackets, D forms with d. No end group written: not given here. *: point of attachment. Farnesyl = CC(C)=CCC/C(C)=C/CC/C(C)=C/C*

How the values were obtained:
Assay type in all cases: biochemical
[1] = system: protease of bovine liver microsomal membranes; assay: Substrate kinetics/activity: formation of N-[3H]-AFC from peptide substrates by calf liver microsomal protease; design: key to substrate activity (Table 1, in words): Analogs referred to as inactive did not show detectable activity as substrate when used at concentration of 10mM and prolonged incubation time (16 hours); weakly active: Where marginal activity is noted, detectable activity is observed under prolonged incubation periods, but the activity is <5% that observer, with AFC-V-I-S; conditions: for substrate activity for the protease (in words): calf liver microsomal preparation; for substrate activity (Table 1, in words): 10mM, prolonged incubation time (16 hours)
Description: Briefly, N-[^3 H]-Acetyl-S-farnesyl-L-cys-L-val-L-ile-L-ser or N-[^3 H]acetyl-S-farnesyl-(SEQ ID NO: 1) at a concentration of 10 μM was incubated with bovine liver microsomal membranes (preparation described below). Periodically, 50 μL aliquots were withdrawn from the incubation mixture and the reaction was quenched with 500μL of chloroform/methanol (1:1, v/v). N-[^3 H]-AFC was extracted after thoroughly mixing the mixture for 1 minute and extracting with chloroform. Phase separation was achieved by adding 500μL of 1M citric acid. The chloroform layer was evaporated under nitrogen, resuspended in hexane/isopropanol/TFA (85:15:0.1), and authentic AFC standard was added for detection at 210 nm. The sample was injected on a silica HPLC column (Dynamax 60A, Rainin, Woburn, Mass.) and eluted with the same solvent. Radioactivity was counted with an on-line Berthold (Nashua, N.H.) LB 506-C HPLC radioactivity monitor.
(§1) Measurement of Proteolytic Activity Bovine liver microsomes were prepared according to Walter et al. (Meth. Enzym. 96:84, 1983). Kinetic measurements were performed by incubating 0.2 mg/mL protein with peptide substrates in 200 mM HEPES buffer containing 100 mM NaCl and 5 mM MgCl2 at pH 7.4, all in a final volume of 50 μL. The peptide substrates were added in DMSO to a final concentration of 4% (v/v) at 37°. The enzymatic reaction was quenched at the appropriate time by the addition of 0.5 mL of chloroform/methanol (1/1, v/v). Phase separation was achieved by adding 0.5 mL 1M citric acid. The chloroform layer was separated and evaporated under nitrogen and the residue was dissolved in n-hexane/2-propanol/TFA containing cold AFC. The formation of the product ^3 H-AFC was followed by HPLC analysis at 210 nm according to Perez-Sala et al. (Proc. Nat'l Acad. Sci. USA 88:3043, 1991). The samples were injected onto a normal phase HPLC column (Dynamax 60, Rainin, Woburn, Mass.) connected to a model LB 506-C on-line radioactivity monitor (Berthold, Nashua, N.H.). The column was eluted with n-hexane/2-propanol/TFA [85:15:0.1 (v/v/v)] at 1.5 mL/min.
For these experiments the substrates were dissolved in DMSC and incubated with calf liver microsomal membranes (0.2 mg of protein/mL) (Walter et al., supra) as described above. The amount of radioactive product was determined as described above. The reaction was quenched with 500 μL of CHCl3 /MeOH (1:1, v/v), and the radioactive N-terminal amino acid, i.e. N-[^3 H]AFC, was extracted after thoroughly agitating this mixture. Phase separation was achieved by adding 500 μL of 1M citric acid. After the chloroform layer was evaporated under nitrogen the residue was resuspended in n-hexane/isopropanol/TFA (90:10:0.01) and non-radioactive AFC was added as a standard for UV detection (210 nm). The sample was injected on a normal-phase HPLC column (Dynamax 60A, Rainin), and elution was performed with the same solvent at flow rate l.5 ml/min. Radioactivity was counted with an on-line Berthold (Nashua, NH) LB 506-C HPLC radioactivity monitor. The limit of efficiency of this assay was 3× the background counts/min (~150 cpm), which permits detection of products from substrates whose activities are 0.4% of the Vmax of AFC-Val-Ile-Ser (SEQ ID NO: 1) (1.13 pmol/min/mg). The retention times for AGC, AFC, and AGGC are 7.58, 7.26, and 7.00 min respectively, and for AGC-Val-Ile, AFC-Val-Ile, and AGGC-Val-Ile, they are 5.48, 6.54, and 5.08 min respectively.

[2] = system: proteolytic enzymatic activity in dog pancreatic microsomes; assay: Proteolysis of tetrapeptide by dog pancreatic microsomes, extended incubation; conditions: extended incubation conditions
Description: A similar stereospecific proteolytic enzymatic activity was also found in dog pancreatic microsomes. Under extended incubation conditions, where 54% of the tetrapeptide substrate 1 was cleaved by these microsomes, no proteolysis of D-AFC-val-ile-ser 2 could be detectec, (<1%). […] Synthesis of N-[^3 H]-acetyl-S-all-trans-farnesyl-L-Cys-L-Val-L-Ile-L-Ser or N-[^3 H]acetyl-S-farnesyl-(SEQ ID NO: 1) A solution of N-[^3 H]-acetyl-S-all-trans-farnesyl-L-Cys-L-Val-L-Ile (1.12 μmol, 250 mCi/mmol), L-serine hydrochloride methyl ester (20 mg, 0.13 mmol), and 1-hydroxybenzotriazole hydrate (17.4 mg, 0.13 mmol) in 3 mL of DMF was cooled to 0° C. 1-(3-Dimethylamino)propyl-3-ethyl carbodiimide hydrochloride (17.2 mg, 0.09 mmol) and N-methylmorpholine (14.1 μL, 13 mg, 0.13 mmol) were added at 0° C. The mixture was stirred at 0° C. under argon for 2 hours and at room temperature for 24 hours. Water (20 mL) was added and the mixture was extracted with ethyl acetate (4×20 mL). The combined organic layer was washed with 10% HCl, saturated sodium bicarbonate, and water, dried over anhydrous magnesium sulfate, filtered, and evaporated. The residue was dissolved in 3 mL of acetonitrile and 3 mL of 10% aqueous sodium carbonate was added. The mixture was stirred at room temperature for 24 h. 10% HCl was added to adjust the pH to 2. […] Recovery of radioactivity was 28.2 μCi, 1.13×10^-4 mmol. […]

[3] = system: protease of bovine liver microsomal membranes; assay: Inhibition of proteolysis of [3H]-AFC-val-ile-ser by calf liver microsomal protease; conditions: 4 μM [3H]-AFC-val-ile-ser substrate; 20 μM of the dipeptide or tripeptide
Description: as §1
As expected, the proteolysis of [^3 H]-AFC-val-ile-ser or N-[^3 H]-(SEQ ID NO: 1) was inhibited by the dipeptide substrate (AFC-val) and by the tripeptide substrate (AFC-val-ile). […]

[4] = Table 1, substrate of the protease, calf liver microsomal membranes, average of two determinations ±S.D., same enzyme preparation
[5] = Table 1, substrate of the protease, calf liver microsomal membranes, average of two determinations ±S.D., same enzyme preparation, read-out: KM
[6] = substrate of the protease, liver microsomal membranes, read-out: KM

| Compound | substrate activity for the protease (in words) [1] | substrate activity (Table 1, in words) ([1]; Table 1) | also measured |
| --- | --- | --- | --- |
| N-[^3 H]-acetyl-S-all-trans-farnesyl-L-Cys-L-Val-L-Ile-L-Met (C(Farnesyl)VIM; not fully specified (N-terminus); printed as N-[^3 H]-acetyl-S-all-trans-farnesyl-L-Cys-L-Val-L-Ile-L-Met; also: tritium label on the N-acetyl) [AFC-Val-Ile-Met (9)] | good substrate | – | Vmax [1, 4]: 126.3 pmol/min/mg; Km [1, 5]: 2.96 ± 0.35 µM |
| CC(=O)N[C@@H](CSC/C=C(\C)CC/C=C(\C)CCC=C(C)C)C(N)=O [AFC amide] | not a substrate | – | – |
| N-acetyl-S-trans-geranyl-L-Cys-L-Val-L-Ile [AGC-Val-Ile (3)] | good substrates | – | Vmax [1, 4]: 19.35 ± 1.12 pmol/min/mg; Km [1, 5]: 14.6 ± 2.14 µM |
| N-[^3 H]-acetyl-S-all-trans-farnesyl-D-Cys-L-Val-L-Ile-L-Ser [D-AFC-val-ile-ser] | did not occur | – | tetrapeptide cleaved [2]: < 1% |
| N-[^3 H]-Acetyl-L-Cys-L-Val-L-Ile [Cys-Val-Ile (4)] | Neither analog was measurably processed | inactive | – |
| N-[^3 H]-Acetyl-S-all-trans-geranylgeranyl-D-cys-L-Val-L-Ile [AGGC-Val-Ile (2) D-L-L] | no measurable protease activity | inactive | – |
| N-[^3 H]-Acetyl-S-all-trans-geranylgeranyl-L-Cys-L-Val-L-Ile [AGGC-Val-Ile (2)] | good substrates | – | Vmax [1, 4]: 26.20 ± 0.97 pmol/min/mg; Km [1, 5]: 4.01 ± 0.4 µM; Vmax ([1]; substrate of the protease): 19.35 pmol/min/mg; Km [1, 6]: 14.6 µM |
| N-Ac-S-all-trans-farnesyl-D-Cys-L-Val-L-Ile [AFC-Val-Ile (6)] | – | inactive | – |
| N-[^3 H]-acetyl-S-all-trans-farnesyl-L-Cys-L-Val-D-Ile [AFC-Val-Ile (8)] | did not have substrate activity | inactive | – |
| N-acetyl-S-trans-geranyl-D-Cys-L-Val-Ile [AGC-Val-Ile (3) D-L-L] | no measurable protease activity | inactive | – |
| N-[^3 H]-Acetyl-S-thio-t-butyl-L-Cys-L-Val-L-Ile [t-butylthio-Cys-Val-Ile (5)] | Neither analog was measurably processed | inactive | – |
| acetyl-S-all-trans-farnesyl-L-Cys-Val-Ile [AFC-Val-Ile (1)] | – | – | Vmax [1, 4]: 57.7 ± 5 pmol/min/mg; Vmax, previously measured ([1]; former measurement on a different microsome preparation from a different animal): 65.6 pmol/min/mg; Km ([1]; former measurement on a different microsome preparation from a different animal, read-out: KM, previously measured): 12.6 µM; Vmax ([1]; substrate of the protease): 58 ± 4.9 pmol/min/mg; Km [1, 6]: 9.2 ± 0.21 µM; diminution in substrate cleavage [3]: approximately 50% |
| N-[^3 H]-acetyl-S-all-trans-farnesyl-L-Cys-L-Val-L-Ile-D-Met ({(3H)‑acetyl}-C(Farnesyl)VI[dM]) [AFC-Val-Ile-Met (10)] | processed to some extent | weakly active (Where marginal activity is noted, detectable activity is observed under prolonged incubation periods, but the activity is <5% that observer, with AFC-V-I-S) | – |
| N-acetyl-S-all-trans-farnesyl-D-Cys-D-Val-L-Ile [D-D-L] | inactive | – | – |
| N-acetyl-S-farnesyl-L-cysteine-L-val-L-ile-L-ser [AFC-val-ile-ser] | – | – | Vmax ([1]; bovine liver microsomal membranes): 0.236 ± 0.008 nmol/min/mg protein; Km [1, 6]: 4.8 µM; tetrapeptide cleaved [2]: 54% |
| N-acetyl-S-all-trans-farnesyl-L-Cys-D-Val-L-Ile [AFC-Val-Ile (7)] | did not have substrate activity | inactive | – |
